Results reported in US20250319012A1, “METHOD FOR PREPARING LOW-MOLECULAR-WEIGHT SILK SERICIN, AND COSMETIC COMPOSITION COMPRISING SERICIN PREPARED THEREBY” (HEWON CO., LTD., priority 2021, published 2025).
Blank lines part the entries; values can stand above or below the molecule they belong to.

Tested on: soluble sericin
Test: Hydrolytic activity of enzymes on soluble sericin (absorbance of supernatant at 271 nm)
Type: biochemical
Details: 10% enzyme, pH 7, 8 hours, 30-70° C. tested
Procedure: To confirm the degree of hydrolysis of sericin according to the kinds of enzyme, a total of 7 kinds of endopeptidase type alcalase, esperase, protamax, bromelain, papain, neutrase and exopeptidase type flavourzyme were prepared. At this time, sericin extracted from the sericin prepared in Preparation Example 1 at 120° C. for 30 minutes was used as a substrate sample, and after centrifugation, insoluble sericin was removed and soluble sericin was used. […]
The reactants after hydrolysis were subjected to enzyme inactivation at 85° C. for 10 min, and then the supernatant was collected by centrifugation (10,000 rpm, 10 min). After diluting the supernatant 20 times with D/W, the absorbance value measured at 271 nm, which is the maximum absorption wavelength of sericin, with a spectrophotometer (UV/VIS Nano Spectrophotometer, Nabi, Microdigital) was used as a measure of solubility.
In order to minimize the change in pH during the enzyme reaction of Preparation Example 2, the pH was adjusted using 1 M acetic acid and an average of 26.5% ammonia hydroxide. 1 mg of soluble sericin was treated with 0.1 mg of an enzyme (10% of sericin concentration), […], and then the supernatant was collected to measure the absorbance with pH change. […]

- temperature at which high hydrolytic activity was shown: 50 °C
Molecule: bromelain

- temperature at which high hydrolytic activity was shown: 60 °C
B1: papain: endopeptidase type enzyme (protein, UniProt P00784 134-345, looked up)
Papain: IPEYVDWRQKGAVTPVKNQGSCGSCWAFSAVVTIEGIIKIRTGNLNEYSEQELLDCDRRSYGCNGGYPWSALQLVAQYGIHYRNTYPYEGVQRYCRSREKGPYAAKTDGVRQVQPYNEGALLYSIANQPVSVVLEAAGKDFQLYRGGIFVGPCGNKVDHAVAAVGYGPNYILIKNSWGTGWGENGYIRIKRGTGNSYGVCGLYTSSFYPVKN
